Values after ≈ are worked out from the molar mass of the structure shown.
Legend:
786-0 = experiment: NCI-60 screen, Renal Cancer; assay type: cell-based, human; details: 10 μM
Protocol: (§1) Several compounds were tested at single concentrations (10 μM) against 59 different human tumor cell lines, representing leukemia, melanoma and cancers of the lung, colon, brain, ovary, breast, prostate, and kidney (see, Table 3). The human tumor cell lines of the cancer screening panel were grown in RPMI 1640 medium containing 5% fetal bovine serum and 2 mM L-glutamine. For a typical screening experiment, cells were inoculated into 96 well microtiter plates in 100 μL at plating densities ranging from 5,000 to 40,000 cells/well depending on the doubling time of individual cell lines. After cell inoculation, the microtiter plates were incubated at 37° C., 5% CO2, 95% air and 100% relative humidity for 24 hours prior to addition of the compounds.
(§2) After 24 hours, two plates of each cell line were fixed in situ with TCA, to represent a measurement of the cell population for each cell line at the time of drug addition (Tz). Compounds were solubilized in dimethyl sulfoxide at 400-fold the desired final maximum test concentration and stored frozen prior to use. At the time of drug addition, an aliquot of frozen concentrate was thawed and diluted to twice the desired final maximum test concentration with complete medium containing 50 μg/ml gentamicin. Additional four, 10-fold or ½ log serial dilutions were made to provide a total of five compound concentrations plus control. Aliquots of 100 μl of these different drug dilutions were added to the appropriate microtiter wells already containing 100 μl of medium, resulting in the required final compound concentrations.
(§3) Following drug addition, the plates were incubated for an additional 48 hours at 37° C., 5% CO2, 95% air, and 100% relative humidity. For adherent cells, the assay was terminated by the addition of cold TCA. Cells were fixed in situ by the gentle addition of 50 μl of cold 50% (w/v) TCA (final concentration, 10% TCA) and incubated for 60 minutes at 4° C. The supernatant was discarded, and the plates were washed five times with tap water and air dried. Sulforhodamine B (SRB) solution (100 μl) at 0.4% (w/v) in 1% acetic acid was added to each well, and plates were incubated for 10 minutes at room temperature. After staining, unbound dye was removed by washing five times with 1% acetic acid and the plates were air dried. Bound stain was subsequently solubilized with 10 mM trizma base, and the absorbance was read on an automated plate reader at a wavelength of 515 nm. For suspension cells, the methodology was the same except that the assay was terminated by fixing settled cells at the bottom of the wells by gently adding 50 μl of 80% TCA (final concentration, 16% TCA). Using the seven absorbance measurements (time zero, (Tz), control growth, (C), and test growth in the presence of drug at the five concentration levels (Ti)), the percentage growth was calculated at each of the compound concentrations levels. Percentage growth inhibition was calculated as:
(§4) [(Ti−Tz)/(C−Tz)]×100 for concentrations for which Ti>/=Tz
(§5) [(Ti−Tz)/Tz]×100 for concentrations for which Ti<Tz.
(§6) Three dose response parameters were calculated for each compound. Growth inhibition of 50% (GI50) was calculated from [(Ti−Tz)/(C−Tz)]×100=50, which is the compound concentration resulting in a 50% reduction in the net protein increase (as measured by SRB staining) in control cells during the compound incubation. The compound concentration resulting in total growth inhibition (TGI) was calculated from Ti=Tz. The LC50 (concentration of compound resulting in a 50% reduction in the measured protein at the end of the compound treatment as compared to that at the beginning) indicating a net loss of cells following treatment was calculated from [(Ti−Tz)/Tz]×100=−50. Values were calculated for each of these three parameters if the level of activity was reached; however, if the effect was not reached or was exceeded, the value for that parameter was expressed as greater or less than the maximum or minimum concentration tested.

RPMI-8226 = experiment: NCI-60 screen, Leukemia; assay type: cell-based, human; details: 10 μM
Protocol: as §1, §2, §3, §4, §5, §6

[1] = system: 59 different human tumor cell lines; experiment: NCI-60 DTP human tumor cell line screen, single concentration, mean over panel; assay type: cell-based; details: single concentration 10 μM, mean over 59 human tumor cell lines; for inhibition at 10 µM: Homo sapiens, read-out: mean growth inhibition; for NCI Screen Mean % Growth: 48 hours, SRB
Protocol: as §1, §2, §3, §4, §5

HCT-116 = experiment: NCI-60 screen, Colon Cancer; assay type: cell-based, human; details: 10 μM
Protocol: as §1, §2, §3, §4, §5, §6

KM12 = experiment: NCI-60 screen, Colon Cancer; assay type: cell-based, human; details: 10 μM
Protocol: as §1, §2, §3, §4, §5, §6

HCC-2998 = experiment: NCI-60 screen, Colon Cancer; assay type: cell-based, human; details: 10 μM
Protocol: as §1, §2, §3, §4, §5, §6

HS 578T = experiment: NCI-60 screen, Breast Cancer; assay type: cell-based, human; details: 10 μM
Protocol: as §1, §2, §3, §4, §5, §6

[2] = system: S. typhymurium ATTC 29631
MCF-10A (ATCC CRL-10317) = experiment: XTT cell viability assay, growth inhibition; assay type: cell-based; details: Homo sapiens, MCF10A, non-tumorigenic, 48 hours incubation
Protocol: (§7) Compound A was tested against two human breast cancer cell lines, MCF-7 (ATCC HTB-22) and TMX2-28, and one non-tumorigenic breast cell line, MCF-10A (ATCC CRL-10317). MCF-7 and TMX2-28 cells were grown in DC5 cell growth media while the MCF-10A cells were grown in MEGM, both supplemented with 5% bovine growth serum. The cells were grown using standard techniques. Cell cultures at 50% confluence were harvested with trypsin, seeded onto sterile 96 well plates at a density of 10,000 cells/well and allowed to grow overnight to 50% confluence. Compound A was then added to the growth medium and allowed to further incubate for 48 hours. Viable cells were quantitated using an XTT assay (purchased from Roche).

TMX2-28 = experiment: XTT cell viability assay, growth inhibition; assay type: cell-based, human
Protocol: as §7

MCF-7 (ATCC HTB-22) = experiment: XTT cell viability assay, growth inhibition; assay type: cell-based, human
Protocol: as §7

human red blood cells = experiment: Lysis of human red blood cells (HC50); assay type: cell-based

SMILES | Percent Growth (786-0) | Percent Growth (RPMI-8226) | inhibition at 10 µM [1] | NCI Screen Mean % Growth [1] | Percent Growth (HCT-116) | Percent Growth (KM12) | Percent Growth (HCC-2998) | Percent Growth (HS 578T) | potent cytotoxicity against bacteria (concentration) [2] | potent cytotoxicity against bacteria (concentration) (E. coli D31) | IC90 (MCF-10A (ATCC CRL-10317)) | IC90 (TMX2-28; Homo sapiens, TMX2-28, tumorigenic, 48 hours incubation, XTT) | Selectivity IC90/IC90 MCF10A (TMX2-28; TMX2-28 versus MCF10A) | IC90 (MCF-7 (ATCC HTB-22); Homo sapiens, MCF7, MCF-7, tumorigenic, 48 hours incubation, XTT) | Selectivity IC90/IC90 MCF10A (MCF-7 (ATCC HTB-22); MCF-7 versus MCF10A) | 50% lysis (HC50) (human red blood cells)
N=C(N)NCCCCC(=O)Nc1cc(C(F)(F)F)cc(NC(=O)Nc2ccc(NC(=O)Nc3cc(C(F)(F)F)cc(NC(=O)CCCCNC(=N)N)c3OC3CCNC3)cc2)c1OC1CCNC1 (stereo not shown) [Compound B] | 58.61% | 49.97% | > 30% | 56.58% | 45.1% | 24.16% | 75.82% |  |  |  |  |  |  |  |  | 
NCCSc1cc(SCCN)c(C(F)(F)F)cc1NC(=O)c1cc(C(=O)Nc2cc(C(F)(F)F)c(SCCN)cc2SCCN)ncn1 [Compound F] | 50.09% |  | > 30% | 41.28% | 32.41% | 7.63% | 31.93% |  |  |  |  |  |  |  |  | 
NCCCc1cccc(-c2ccc3oc4ccc(-c5cccc(CCCN)c5)cc4c3c2)c1 [Compound G] | 5.487% | 65.28% | > 30% | 49.56% | −37.99% | 14.01% | 81.22% | 100.4% |  |  |  |  |  |  |  | 
c1cc(-c2ccc3sc4ccc(-c5ccnc(N6CCNCC6)c5)cc4c3c2)cc(N2CCNCC2)n1 [Compound E] |  |  |  |  | −48.52% | −87.84% | −9.443% |  |  |  |  |  |  |  |  | 
N=C(N)NCCCCC(=O)Nc1cc(C(F)(F)F)cc(NC(=O)c2cc(C(=O)Nc3cc(C(F)(F)F)cc(NC(=O)CCCCNC(=N)N)c3SCCN)ncn2)c1SCCN [Compound C] |  |  | > 30% | 43.48% | 37.88% | −39.48% | 54.2% |  |  |  |  |  |  |  |  | 
NCCc1cc(Br)cc(C#Cc2cccc(C#Cc3cc(Br)cc(CCN)c3)c2)c1 [Compound A] | −26.78% | 9.497% |  |  | −45.86% | −87.53% | 54.09% |  | 0.8 to 1.6 µg/mL | 0.8 to 1.6 µg/mL | 12.5 µg/mL (≈ 23.9 µM) | 6.3 µg/mL (≈ 12.1 µM) | 2 | 6.3 µg/mL (≈ 12.1 µM) | 2 | 75 µg/mL
NCCCc1cccc(-c2ccc3sc4ccc(-c5cccc(CCCN)c5)cc4c3c2)c1 [Compound D] | 79.48% | 62.06% | > 30% | 67.91% | 0.5127% | 42.09% | 93.27% |  |  |  |  |  |  |  |  | 

From patent US20120115877A1, “Facially Amphiphilic Compounds, Compositions, And Uses Thereof In Treating Cancer” (POLYMEDIX, INC., priority 2010, published 2012)
